In US20030049253A1, “Polymeric conjugates for delivery of MHC-recognized epitopes via peptide vaccines” (priority 2001, published 2003):

Experiments:
[1] = test system: human amyloid β amino acid residues 1-42 (Aβ42 peptide); assay: Antibody titer to Aβ42 peptide in vaccinated mice; type: in vivo; details: 100 μg Aβ42 peptide per injection s.c., day 0 and day 14; FIG. 5
Experimental: Mice were immunized with 100 μg Aβ42 peptide per injection. Aβ42 in PBS alone was injected as control. Mice were primed s.c. on day 0 and boosted on day 14. Detection used goat anti-mouse immunoglobulin conjugated to alkaline phosphatase and p-nitrophenyl phosphate.

Mouse spleen cells = assay: In vitro cytokine assay: IFN-γ ELISA of spleen cell culture supernatants; type: in vivo; details: spleen cells cultured with p7g peptide, 24 hours; limit of detection 5 pg/ml; FIG. 3
Experimental: In vitro cytokine assay. Mouse spleen cells were cultured with p7g peptides in parallel with the ELISpot assays. Culture supernatants were collected 24 hours after addition of peptide, and the concentrations of gamma interferon (IFN-γ) were determined by enzyme-linked immunosorbent assay (ELISA). Briefly, anti-mouse IFN-γ (R46A2; monoclonal antibody, Pharmingen) was diluted in coating buffer (pH 9.6) and coated (1 μg protein/well) onto 96-well enzyme-linked immunosorbent assay (ELISA) plates (Nunc Immunoplates; Nunc. Corp., Naperville, Ill.) by overnight incubation at 4° C. The plates were washed six times in wash buffer, then blocked with PBS containing 0.05% Tween 20 (Sigma), 1% low-fat dry milk (Carnation; Nestle Food Corp., Glendale, Calif.), and 4% goat serum (KPL Laboratories, Gaithersburg, Md.) for 1 hour. After washing, each plate was incubated with samples diluted in PBS containing 1% BSA and 0.05% Tween 20 for 1 hour. The plates were then incubated with rabbit anti-mouse IFN-γ (Cytlmmune Sciences, Inc. College, Md.) diluted 1:1000 in the same PBS solution for 1 hour and washed again six times. […] The bound mouse IFN-γ was quantitated by calorimetric reaction using p-nitrophenyl phosphate as a substrate (KPL Laboratories). The optical density (OD) was measured at 405 nm in a Bio-Tek Plate Reader (Winooski, Vt.). […]

[2] = test system: CD4+ and CD8+ splenocytes; design: species or system BALB/c mice; details: mouse, in vivo
[3] = test system: R5 and dual-tropic (R5/X4) HIV-1 strains; details: monocyte-derived macrophages, microglia, primary CD4(+) T cells; cited from earlier work
CD4 receptor = CD4 receptor (Homo sapiens, UniProt P01730); details: in vitro; cited from earlier work

## Aβ42 peptide alone
[1]
  antibody titer to Aβ42 peptide: no detectable anti-peptide antibody

## Aβ42 peptide linked to HA
[1]
  antibody titer to Aβ42 peptide: substantial

## AMQMLKETI [free p7g peptide]
Mouse spleen cells
  concentration of IFN-γ in culture supernatants (ELISA): no measurable IFN-γ
[2]
  CTL response and INF-γ expression (intracellular staining, flow cytometry): no CTL or INF-γ expression

## AS TTTNYT [Peptide T]
[3]
  replication of HIV-1 strains: inhibits replication
CD4 receptor
  binding of isolated gp120 and HIV-1 to the CD4 receptor: inhibition of the binding
